The compounds below were run against T1, Cholesteryl ester transfer protein (Homo sapiens, UniProt P11597) (assay: Inhibition of CETP in human plasma assessed as reduction in fluorescent intensity by fluorescence analysis).
T1 sequence (P11597 whole entry): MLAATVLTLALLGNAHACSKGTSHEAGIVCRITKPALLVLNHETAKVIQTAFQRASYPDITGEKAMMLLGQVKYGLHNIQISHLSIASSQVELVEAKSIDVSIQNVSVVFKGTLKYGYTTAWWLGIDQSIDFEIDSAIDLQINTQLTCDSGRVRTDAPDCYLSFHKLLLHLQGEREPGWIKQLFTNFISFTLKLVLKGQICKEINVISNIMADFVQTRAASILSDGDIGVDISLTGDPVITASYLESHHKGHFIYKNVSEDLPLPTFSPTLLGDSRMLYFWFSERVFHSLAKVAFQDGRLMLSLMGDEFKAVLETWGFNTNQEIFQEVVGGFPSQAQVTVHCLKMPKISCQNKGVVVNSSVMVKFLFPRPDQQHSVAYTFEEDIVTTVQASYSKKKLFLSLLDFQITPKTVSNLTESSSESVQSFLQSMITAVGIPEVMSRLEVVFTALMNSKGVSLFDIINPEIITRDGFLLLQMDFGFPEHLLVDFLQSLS

| SMILES | IC50 |
| --- | --- |
| CC[C@@H]1C[C@H](N(Cc2cc(C(F)(F)F)cc(C(F)(F)F)c2)c2nnn(C)n2)c2nc(OC)c(C)cc2N1C(=O)OC(C)C (racemic) | 0.0384 µM |
| CC[C@@H]1C[C@H](N(Cc2cc(C(F)(F)F)cc(C(F)(F)F)c2)c2nnn(C)n2)c2nc(NC)ccc2N1C(=O)OC(C)C | 0.142 µM |
| CC[C@@H]1C[C@H](N(Cc2cc(C#N)cc(C(F)(F)F)c2)c2nnn(C)n2)c2nc(C)ccc2N1C(=O)OC(C)C | 0.021 µM |
| CC[C@@H]1C[C@H](N(Cc2cc(Cl)cc(Cl)c2)c2nnn(C)n2)c2nc(C)ccc2N1C(=O)OC(C)C | 0.024 µM |
| CC[C@H]1C[C@@H](N(Cc2cc(C(F)(F)F)cc(C(F)(F)F)c2)c2nnn(C)n2)c2nc(C(F)(F)F)ccc2N1C(=O)OC(C)C | 7.42 µM |
| CC(=O)N(Cc1cc(C(F)(F)F)cc(C(F)(F)F)c1)[C@H]1C[C@@H](C2CC2)N(C(=O)OC(C)C)c2ccc(C(F)(F)F)nc21 (racemic) | 0.98 µM |
| CC[C@@H]1C[C@H](N(Cc2cc(C(F)(F)F)cc(C(F)(F)F)c2)c2nnn[nH]2)c2nc(C(F)(F)F)ccc2N1C(=O)OC(C)C (racemic) | > 50 µM |
| CC[C@@H]1C[C@H](N(C#N)Cc2cc(C(F)(F)F)cc(C(F)(F)F)c2)c2nc(C(F)(F)F)ccc2N1C(=O)OC(C)C (racemic) | > 5 µM |
| CCCC(=O)N1c2ccc(C(F)(F)F)nc2[C@@H](N(Cc2cc(C(F)(F)F)cc(C(F)(F)F)c2)c2nnn(C)n2)C[C@H]1CC | 0.114 µM |
| CC[C@@H]1C[C@H](N(Cc2cc(C(F)(F)F)cc(C(F)(F)F)c2)c2nnn(C)n2)c2nc(C(F)(F)F)ccc2N1C(=O)c1c(C)cnn1C | 0.193 µM |
| CC[C@@H]1C[C@H](N(Cc2cc(C(F)(F)F)cc(C(F)(F)F)c2)C(C)=O)c2nc(C)ccc2N1C(=O)OC(C)C (racemic) | 0.98 µM |
| CC[C@@H]1C[C@H](N(Cc2cc(C(F)(F)F)cc(C(F)(F)F)c2)c2nnn(C)n2)c2nc(C(F)(F)F)ccc2N1C(=O)C(C)C | 0.055 µM |
| CC(=O)N(Cc1cc(C(F)(F)F)cc(C(F)(F)F)c1)[C@H]1C[C@@H](C)N(C(=O)OC(C)C)c2ccc(C(F)(F)F)nc21 (racemic) | 1.05 µM |
| CC[C@@H]1C[C@H](N(Cc2cc(C(F)(F)F)cc(C(F)(F)F)c2)C(C)=O)c2nc(OC)ccc2N1C(=O)OC(C)C (racemic) | 0.487 µM |
| CC[C@@H]1C[C@H](N(Cc2cc(C(F)(F)F)cc(C(F)(F)F)c2)c2nnn(C)n2)c2nc(C(F)(F)F)ccc2N1C(=O)OCCc1nn[nH]n1 | 0.488 µM |
| CC[C@@H]1C[C@H](N(Cc2cc(C(F)(F)F)cc(C(F)(F)F)c2)c2nnn(C)n2)c2nc(C(F)(F)F)ccc2N1CC(C)C | 0.205 µM |
| CCNc1ccc2c(n1)[C@@H](N(Cc1cc(C(F)(F)F)cc(C(F)(F)F)c1)c1nnn(C)n1)C[C@@H](CC)N2C(=O)OC(C)C | 0.591 µM |
| CC[C@@H]1C[C@H](N(Cc2cc(C(F)(F)F)cc(C(F)(F)F)c2)c2nnnn2C)c2nc(C(F)(F)F)ccc2N1C(=O)OC(C)C (racemic) | > 50 µM |
| CC[C@@H]1C[C@H](N(Cc2cc(C(F)(F)F)cc(C(F)(F)F)c2)c2nnn(C)n2)c2nc(C(F)(F)F)ccc2N1C(=O)OC | 0.197 µM |
| CC[C@@H]1C[C@H](N(Cc2cc(C(F)(F)F)cc(C(F)(F)F)c2)c2nnn(C)n2)c2nc(C(F)(F)F)ccc2N1C(=O)OCCN1CCN(C)CC1 | 5.73 µM |
| CC[C@@H]1C[C@H](N(Cc2cc(C(F)(F)F)cc(C(F)(F)F)c2)c2nnn(C)n2)c2nc(Br)ccc2N1C(=O)OC(C)C (racemic) | 0.047 µM |
| CC[C@@H]1C[C@H](N(Cc2cc(C(F)(F)F)cc(C(F)(F)F)c2)c2nnn(C)n2)c2nc(C)ccc2N1C(=O)OC(C)C (racemic) | 0.061 µM |
| CC[C@@H]1C[C@H](N(Cc2cc(C(F)(F)F)cc(C(F)(F)F)c2)c2nnn(CCN)n2)c2nc(C(F)(F)F)ccc2N1C(=O)OC(C)C (racemic) | 0.066 µM |

| SMILES | IC50 |
| --- | --- |
| CC[C@@H]1C[C@H](N(Cc2cc(C(F)(F)F)cc(C(F)(F)F)c2)c2nnn(C)n2)c2nc(C(F)(F)F)ccc2N1C(=O)OC(C)C (racemic) | 0.049 µM |
| CC[C@@H]1C[C@H](N(Cc2cc(C(F)(F)F)cc(C(F)(F)F)c2)c2nnn(C)n2)c2nc(OC)ccc2N1C(=O)OC(C)C (racemic) | 0.134 µM |
| CC[C@@H]1C[C@H](N(Cc2cc(C(F)(F)F)cc(C(F)(F)F)c2)c2nnn(CCO)n2)c2nc(C(F)(F)F)ccc2N1C(=O)OC(C)C (racemic) | 0.044 µM |
| CC[C@@H]1C[C@H](N(Cc2cc(C(F)(F)F)cc(C(F)(F)F)c2)C(C)=O)c2nc(C(F)(F)F)ccc2N1C(=O)OC(C)C (racemic) | 0.396 µM |
| Cc1cc(C)c2c(c1)[C@@H](N(Cc1cc(C(F)(F)F)cc(C(F)(F)F)c1)c1nnn(C)n1)CCCN2C[C@H]1CC[C@H](C(=O)O)CC1 [EVACETRAPIB] | 0.026 µM |
| CC[C@@H]1C[C@H](N(Cc2cc(C(F)(F)F)cc(C(F)(F)F)c2)c2nnn(C)n2)c2nc(N3CCOCC3)ccc2N1C(=O)OC(C)C | 25 µM |
| CC[C@@H]1C[C@H](N(Cc2cc(C(F)(F)F)cc(C(F)(F)F)c2)c2nnn(C)n2)c2nc(N)c(C)cc2N1C(=O)OC(C)C (racemic) | 0.106 µM |
| CC[C@@H]1C[C@H](N(Cc2cc(C(F)(F)F)cc(C(F)(F)F)c2)c2nnn(C)n2)c2nc(N(C)C)ccc2N1C(=O)OC(C)C | 0.031 µM |
| CC[C@@H]1C[C@H](N(Cc2cc(C(F)(F)F)cc(C(F)(F)F)c2)C(C)=O)c2nc(N(C)C)ccc2N1C(=O)OC(C)C (racemic) | 0.948 µM |
| CC[C@H]1C[C@@H](N(Cc2cc(C(F)(F)F)cc(C(F)(F)F)c2)c2nnn(C)n2)c2nc(C)ccc2N1C(=O)OC(C)C | 50 µM |
| CCOC(=O)N1c2ccc(C(F)(F)F)nc2[C@@H](N(Cc2cc(C(F)(F)F)cc(C(F)(F)F)c2)c2nnn(C)n2)C[C@H]1CC | 0.029 µM |
| CC[C@@H]1C[C@H](N(Cc2cc(C(F)(F)F)cc(C(F)(F)F)c2)c2nnn(C)n2)c2nc(N3CCNCC3)ccc2N1C(=O)OC(C)C | > 50 µM |
| CC[C@@H]1C[C@H](N(Cc2cc(C(F)(F)F)cc(C(F)(F)F)c2)c2nnn(C)n2)c2nc(C(F)(F)F)ccc2N1C(=O)OCCN1CCOCC1 | 2.11 µM |
| CC[C@@H]1C[C@H](N(Cc2cc(Cl)cc(C(F)(F)F)c2)c2nnn(C)n2)c2nc(C)ccc2N1C(=O)OC(C)C | 0.012 µM |
| CCC1CC(N(Cc2cc(C(F)(F)F)cc(C(F)(F)F)c2)C(C)=O)c2sccc2N1C(=O)OC(C)C (stereo unspecified) | 46 µM |
| CC[C@@H]1C[C@H](N(Cc2cc(F)cc(C(F)(F)F)c2)c2nnn(C)n2)c2nc(C)ccc2N1C(=O)OC(C)C | 0.03 µM |
| CC[C@@H]1C[C@H](N(Cc2cc(C(F)(F)F)cc(C(F)(F)F)c2)c2nnn(C)n2)c2nc(N)ccc2N1C(=O)OC(C)C | 0.098 µM |
| CC[C@@H]1C[C@H](N(Cc2cc(C(F)(F)F)cc(C(F)(F)F)c2)c2nnn(C)n2)c2nc(C(F)(F)F)ccc2N1C(=O)OCCO | 0.108 µM |
| CC[C@@H]1C[C@H](N(Cc2cc(Cl)cc(C(F)(F)F)c2)c2nnn(C)n2)c2nc(C(F)(F)F)ccc2N1C(=O)OC(C)C | 0.02 µM |
| CC[C@@H]1C[C@H](N(Cc2cc(Cl)cc(Cc3cncc(C(F)(F)F)c3)c2)c2nnn(C)n2)c2nc(C(F)(F)F)ccc2N1C(=O)OC(C)C | 0.207 µM |
| CC[C@@H]1C[C@H](N(Cc2cc(C(F)(F)F)cc(C(F)(F)F)c2)c2nnn(C)n2)c2nc(C(F)(F)F)ccc2N1C(=O)OCCN(C)C | 0.572 µM |
| CC[C@@H]1C[C@H](N(Cc2cc(C(F)(F)F)cc(C(F)(F)F)c2)c2nnn(C)n2)c2nc(C(F)(F)F)ccc2N1C(=O)OC1CCOCC1 | 0.066 µM |
| CCOC(=O)N1c2c(C)cc(C(F)(F)F)nc2[C@@H](N(Cc2cc(C(F)(F)F)cc(C(F)(F)F)c2)c2nnn(C)n2)C[C@H]1CC (racemic) | 0.024 µM |

Reference: ChEMBL document CHEMBL2016576, “Design, synthesis and structure-activity-relationship of 1,5-tetrahydronaphthyridines as CETP inhibitors” (Bioorg Med Chem Lett, 2012)
